Source: ChEMBL document CHEMBL5512597, “Triazole hybrid compounds: A new frontier in malaria treatment” (Eur J Med Chem, 2023)
Converted amounts (≈) assume the structure as drawn. One block for each compound: values may come before it.

Columns and labels:
Plasmodium falciparum [1] = assay: Antiplasmodial activity against CQ-sensitive Plasmodium falciparum NF54; assay type: functional, organism-based
[2] = Cytotoxicity against African green monkey Vero cells; assay type: toxicity, cell-based; settings: chlorocebus sabaeus
Plasmodium falciparum [3] = assay: Antimalarial activity against Plasmodium falciparum 3D7 at asexual stage infected in erythrocytes assessed as parasite growth inhibition incubated for 72 hrs by MSF assay; assay type: functional, organism-based; settings: 3D7, Erythrocyte
[4] = Cytotoxicity against African green monkey Vero cells after 72 hrs by MTT assay; assay type: toxicity, cell-based; settings: chlorocebus sabaeus
Plasmodium falciparum [5] = assay: Antimalarial activity against CQ-sensitive Plasmodium falciparum D6 assessed as parasite growth inhibition by LDH assay; assay type: functional, organism-based
Plasmodium falciparum [6] = assay: Antimalarial activity against CQ-resistant Plasmodium falciparum W2 assessed as parasite growth inhibition by LDH assay; assay type: functional, organism-based
Plasmodium falciparum [7] = assay: Antimalarial activity against Plasmodium falciparum 3D7 infected in erythrocytes assessed as parasite growth inhibition incubated for 42 hrs by [3H]-hypoxanthine incorporation assay; assay type: functional, organism-based; settings: 3D7, Erythrocyte
Plasmodium falciparum [8] = assay: Antimalarial activity against Plasmodium falciparum 3D7 assessed as inhibition of parasite proliferation; assay type: functional, organism-based
Plasmodium falciparum [9] = assay: Antiplasmodial activity against Plasmodium falciparum 3D7 at asexual erythrocytic stage infected in human erythrocytes assessed as parasite growth inhibition incubated for 42 hrs by [3H]-hypoxanthine incorporation assay; assay type: functional, organism-based; settings: 3D7, Erythrocyte
Plasmodium falciparum [10] = assay: Antimalarial activity against Plasmodium falciparum W2 assessed as parasite growth inhibition; assay type: functional, organism-based
Plasmodium falciparum [11] = assay: Antiplasmodial activity against CQ-sensitive Plasmodium falciparum NF54 at asexual stage assessed as parasite growth inhibition; assay type: functional, organism-based
Plasmodium falciparum [12] = assay: Antiplasmodial activity against Plasmodium falciparum K1 at asexual stage assessed as parasite growth inhibition; assay type: functional, organism-based
Plasmodium falciparum [13] = assay: Antimalarial activity against CQ-sensitive Plasmodium falciparum 3D7 infected in human O+ erythrocytes assessed as parasite growth inhibition incubated for 48 hrs by SYBR Green I staining based analysis; assay type: functional, organism-based; settings: 3D7, Erythrocyte
Plasmodium falciparum [14] = assay: Antimalarial activity against CQ-resistant Plasmodium falciparum K1 infected in human O+ erythrocytes assessed as parasite growth inhibition incubated for 48 hrs by SYBR Green I staining based analysis; assay type: functional, organism-based; settings: K1, Erythrocyte
Plasmodium falciparum [15] = assay: Antimalarial activity against Plasmodium falciparum 3D7 assessed as inhibition of parasitemia incubated for 72 hrs by fluorescence based assay; assay type: functional, organism-based; settings: 3D7, 72 h
Plasmodium falciparum [16] = assay: Antimalarial activity against Plasmodium falciparum […] incubated for 48 hrs; assay type: functional, organism-based
Plasmodium falciparum [17] = assay: Antiplasmodial activity against CQ-sensitive Plasmodium falciparum F32 Tanzania assessed as parasite growth inhibition incubated for 48 hrs; assay type: functional, organism-based
[18] = Inhibition of Plasmodium falciparum SR21

IC50 (Plasmodium falciparum [1]): 1.14 µM
Compound: CC1(C)[C@@H](O)CC[C@]2(C)[C@H]3C(=O)C=C4[C@@H]5C[C@@](C)(C(=O)OCc6cn(-c7ccc(C#N)cc7)nn6)CC[C@]5(C)CC[C@@]4(C)[C@]3(C)CC[C@@H]12
CC50 [2]: 190 µM

Compound: O=C(Cn1cc(COc2ccc(Cl)cc2)nn1)NCCNc1ccnc2cc(Cl)ccc12
IC50 (Plasmodium falciparum [3]): 0.04 µM
CC50 at 72 h [4]: 86.8 µM

Compound: O=C1c2nnn(Cc3cccc(F)c3)c2C(=O)c2nnn(Cc3cccc(F)c3)c21
IC50 (Plasmodium falciparum [5]): 0.679 µM
IC50 (Plasmodium falciparum [6]): 0.583 µM

Compound: COc1ccc2cc3[n+](cc2c1OCc1cn(-c2ccc(S(=O)(=O)N4CCN(c5ccccn5)CC4)cc2)nn1)CCc1cc2c(cc1-3)OCO2.[Cl-]
IC50 (Plasmodium falciparum [7]): 1 µg/mL

Compound: CCCCCc1cn(CCNC(=O)[C@H](O)C(C)(C)CO)nn1
IC50 (Plasmodium falciparum [8]): 8.5 µM

IC50 (Plasmodium falciparum [1]): 0.47 µM
Compound: CC1(C)[C@@H](O)CC[C@]2(C)[C@H]3C(=O)C=C4[C@@H]5C[C@@](C)(C(=O)OCc6cn(-c7ccc(O)cc7[N+](=O)[O-])nn6)CC[C@]5(C)CC[C@@]4(C)[C@]3(C)CC[C@@H]12
CC50 [2]: 253 µM

Compound: Cc1ccc(OCc2cn(-c3ccc(S(N)(=O)=O)cc3)nn2)cc1
IC50 (Plasmodium falciparum [9]): > 50 µg/mL

Compound: C=C[C@H]1CN2CC[C@H]1C[C@H]2[C@H](c1ccnc2ccccc12)n1cc(C(C)(C)O)nn1
IC50 (Plasmodium falciparum [10]): 2.59 µM

Compound: COC(=O)C1=C(Cn2cc(CNc3ccnc4cc(Cl)ccc34)nn2)N(C)C(=O)NC1c1ccc(OC)cc1 (stereo unspecified)
IC50 (Plasmodium falciparum [11]): 0.18 µM
IC50 (Plasmodium falciparum [12]): 0.422 µM

Compound: COc1ccc2cc3[n+](cc2c1OCc1cn(-c2ccc(S(=O)(=O)N4CCN(C)CC4)cc2)nn1)CCc1cc2c(cc1-3)OCO2.[Cl-]
IC50 (Plasmodium falciparum [7]): 0.8 µg/mL

Compound: Clc1ccc2c(-c3cn(CC(c4ccccc4)c4ccccc4)nn3)ccnc2c1
IC50 (Plasmodium falciparum [13]): 91.8 µM
IC50 (Plasmodium falciparum [14]): 72 µM

Compound: COc1ccc2cc3[n+](cc2c1OCc1cn(-c2ccc(S(=O)(=O)Nc4ccc([N+](=O)[O-])cc4)cc2)nn1)CCc1cc2c(cc1-3)OCO2.Cl
IC50 (Plasmodium falciparum [7]): 20 µg/mL

Compound: Clc1cccc(-n2cc(-c3cncc4ccccc34)nn2)c1
IC50 (Plasmodium falciparum [13]): 365 µM
IC50 (Plasmodium falciparum [14]): 95.8 µM

Compound: CCCCn1cc(CCNC(=O)[C@H](O)C(C)(C)CO)nn1
IC50 (Plasmodium falciparum [8]): 3.3 µM

Compound: Cc1cccc(Cn2nnc3c2C(=O)c2nnn(Cc4cccc(C)c4)c2C3=O)c1
IC50 (Plasmodium falciparum [5]): 8.37 µM
IC50 (Plasmodium falciparum [6]): 6.61 µM

IC50 (Plasmodium falciparum [15]): 11.7 µM
Compound: CCOCc1cn(-c2ccc(Cl)cc2)nn1

Compound: O=S(=O)(c1ccc(-n2cc(COc3ccccc3)nn2)cc1)N1CCCCC1
IC50 (Plasmodium falciparum [9]): > 50 µg/mL

Compound: CCCn1cc(CCNC(=O)[C@H](O)C(C)(C)CO)nn1
IC50 (Plasmodium falciparum [8]): 5.3 µM

IC50 (Plasmodium falciparum [16]): 1.45 µg/mL (≈ 3.09 µM)
Compound: Cc1nn(-c2ccccc2)c(-n2cncn2)c1-c1cc(-c2ccccc2)nc2nc3ccccc3n12

Compound: O=C1C=C(OCc2cn(-c3ccc(CO)cc3)nn2)C(=O)c2ccccc21
IC50 (Plasmodium falciparum [17]): 9.7 µM

Compound: O=C(Cn1cc(-c2ccccc2)nn1)NCCCNc1ccnc2cc(Cl)ccc12
IC50 (Plasmodium falciparum [3]): 0.137 µM

Compound: O=C1c2nnn(Cc3cccc(Cl)c3)c2C(=O)c2nnn(Cc3cccc(Cl)c3)c21
IC50 (Plasmodium falciparum [5]): 6.32 µM
IC50 (Plasmodium falciparum [6]): 7.61 µM

Compound: CCCCCn1nncc1CNC(=O)[C@H](O)C(C)(C)CO
IC50 (Plasmodium falciparum [8]): 36 µM

Compound: O=C1C=C(OCc2cn(C3=CC(=O)c4ccccc4C3=O)nn2)C(=O)c2ccccc21
IC50 (Plasmodium falciparum [17]): 1.9 µM

Compound: CCCCCCCCCCCn1cc(COC2=CC(=O)c3ccccc3C2=O)nn1
IC50 (Plasmodium falciparum [17]): 17 µM

Compound: O=C1C=C(OCc2cn(-c3ccc(S)cc3)nn2)C(=O)c2ccccc21
IC50 (Plasmodium falciparum [17]): > 20 µM

IC50 (Plasmodium falciparum [1]): 4.03 µM
Compound: Cc1ccc(-n2cc(COC(=O)[C@@]3(C)CC[C@]4(C)CC[C@]5(C)C(=CC(=O)[C@@H]6[C@@]7(C)CC[C@H](O)C(C)(C)[C@@H]7CC[C@]65C)[C@@H]4C3)nn2)cc1Cl
CC50 [2]: 377 µM

Compound: O=C(Cn1cc(COc2ccc(Br)cc2)nn1)NCCNc1ccnc2cc(Cl)ccc12
IC50 (Plasmodium falciparum [3]): 0.04 µM
CC50 at 72 h [4]: 28.9 µM

IC50 (Plasmodium falciparum [16]): 0.092 µg/mL (≈ 0.201 µM)
Compound: Cc1nn(-c2ccccc2)c(-n2cncn2)c1-c1cc(-c2cc[nH]c2)nc2nc3ccccc3n12

IC50 (Plasmodium falciparum [16]): 1.32 µg/mL (≈ 5.21 µM)
Compound: Cc1nn(-c2ccccc2)c(-n2cncn2)c1C=O

Compound: C=C[C@H]1CN2CC[C@H]1C[C@H]2[C@H](c1ccnc2ccccc12)n1cc(C(C)(C)N)nn1
IC50 (Plasmodium falciparum [10]): 4.62 µM

IC50 (Plasmodium falciparum [15]): 29.3 µM
IC50 [18]: 12.4 µM
Compound: Clc1cc(Cl)cc(-n2cc(/C=N/Nc3ccc(Br)cc3)nn2)c1

Compound: O=C(Cn1cc(COc2ccc(Br)cc2)nn1)NCCCNc1ccnc2cc(Cl)ccc12
CC50 at 72 h [4]: 27.1 µM

Compound: C=C[C@H]1CN2CC[C@H]1C[C@H]2[C@H](c1ccnc2ccccc12)n1cc(CCC)nn1
IC50 (Plasmodium falciparum [10]): 1.99 µM
